In patent US12667584B2, “Adenosine analog and its use in regulating the circadian clock” (NATIONAL INSTITUTE OF BIOLOGICAL SCIENCES, BEIJING, priority 2017, dated 2026):

Key:
[1] = HPLC-MASS analysis of CSF after tail vein injection; assay type: in vivo, rat; conditions: 15 mg/kg tail vein
Experimental: HPLC-MASS analysis CSF: 8 W SD rats are bought from Beijing Vital River, housed in individually cage in a temperature- and humidity-controlled SPF facility, with ad libitum access to food and water. The animals were entrained under 12 h light/dark photoperiod for two weeks to synchronize the endogenous circadian clock of the mice to the ambient light-dark cycle, light intensity is about 50˜100 lux. […] Finally, each 450 μl supernatant was collected into a new 1.5 ml tube, dried with SpeedVac and analyzed with HPLC-MASS facility.
To test whether cordycepin function in vivo, we firstly tested luciferase signal level by live imaging of Per2:LUC mice after intraperitoneal injection of 15 mg/kg cordycepin or DMSO. […] Prior evaluation the jet-leg cure ability of cordycepin, we detected whether cordycepin and it's prodrug pro-CA03 can penetrate BBB. We injected cordycepin or pro-CA03 via tail vein and time course sampled CSF and analyzed cordycepin pro-CA03 level with HPLC-MASS method. […] Finally we evaluated the jet-leg cure ability of cordycepin, pro-CA03 and Pro-CA04 with mice behavioral experiment. […]

liver culture slice = assay: Ex vivo liver slice culture from Per2::LUC mice, lumicycle; assay type: cell-based, mouse; conditions: 100 μM at Per2::LUC peak
From the text: Tissue culture, drug treatment and Real-Time Monitoring of Circadian Oscillations: 8 week-old male mPer2 Luciferase knockin mice were Sacrificed cervical dislocation. Then wipe the skin and neck with cotton containing 70% ethanol in a sterile hood. For SCN slice culture, firstly remove the eye balls from the head with scissors, decapitate and cut the skin. Then open the skull, remove all bone until the olfactory bulbs can be seen, cut the optic nerve between the olfactory bulbs and the hemispheres, and finally harvest the whole brain into ice cold HBSS. Trim the brain in HBSS by removing the cerebellum and olfactory bulbs. Attach the brain to a sample tray by glue with the rostral tip upwards and ventral surface closest to the cutting blade, then immediately fill the tray with ice cold HBSS and set the tray to the vibratome. Set the vibratome frequency at the maximum and the speed to the medium. To reach the SCN area quickly, the start cutting off thicker sections should be 500-800 μm. Reduce the sections thicker to 100 μm when the optic chiasm becomes wider. When the two SCN nuclei start to appear, collect the slice with transfer pipettes and check slices under dissecting microscope. […] Data was extract and analyzed with LumiCycle Analysis software. […]

[2] = system: Per2-Luc reporter U2OS cells (D15); assay: Circadian phase shift cell assay in D15 cells, 384 well plate, Tecan, with or without pentostatin; assay type: cell-based, human
[3] = Cordycepin concentration in CSF after intraperitoneal injection; assay type: in vivo
From the text: We measured the cordycepin concentration in cerebrospinal fluid (CSF) after the intraperitoneal (I.P.) injection.

Nc1ncnc2c1ncn2[C@@H]1O[C@H](CO)C[C@H]1O [Cordycepin, 3′-deoxy-adenosine]
time of peak concentration in CSF after injection [1]: 1 min
clock phase of liver slice versus DMSO (liver culture slice): totally antiphase
concentration of eliciting 12 h phase shift (potency) ([2]; pentostatin containing medium (5 μg/ml)): 200 nM
concentration of eliciting 12 h phase shift (potency) ([2]; pentostatin containing medium (5 μg/ml), listed as cordycepin): 180 nM
concentration of eliciting 12 h phase shift (potency) ([2]; without pentostatin): 25000 nM
time of detection in the CSF after the injection [3]: ≤ 15 min
